Assay results taken from patent US20250179103A1, “6-OXODECAHYDROPYRROLO[1,2-A][1,5]DIAZOCINE AND 6-OXODECAHYDRO-4H-PYRROLO[2,1-D][1,5]THIAZOCINE DERIVATIVES AS STAT3 AND STAT6 MODULATORS FOR THE TREATMENT OF CANCER AND INFLAMMATORY CONDITIONS” (Recludix Pharma, Inc., priority 2022, published 2025).

How the values were obtained:
[1] = target: T1, Recombinant STAT6 protein (STAT6(W123-T658)) (Homo sapiens, UniProt P42226); assay: STAT6 Fluorescence Polarization (FP) Assay; format: binding; conditions: STAT6(W123-T658) 250 nM, probe 5-FAM-ApYKPFQDLI-NH2 2 nM, 45-minute incubation
T1 construct: Recombinant STAT6 protein (STAT6(W123-T658))
T1 sequence (P42226 123-658): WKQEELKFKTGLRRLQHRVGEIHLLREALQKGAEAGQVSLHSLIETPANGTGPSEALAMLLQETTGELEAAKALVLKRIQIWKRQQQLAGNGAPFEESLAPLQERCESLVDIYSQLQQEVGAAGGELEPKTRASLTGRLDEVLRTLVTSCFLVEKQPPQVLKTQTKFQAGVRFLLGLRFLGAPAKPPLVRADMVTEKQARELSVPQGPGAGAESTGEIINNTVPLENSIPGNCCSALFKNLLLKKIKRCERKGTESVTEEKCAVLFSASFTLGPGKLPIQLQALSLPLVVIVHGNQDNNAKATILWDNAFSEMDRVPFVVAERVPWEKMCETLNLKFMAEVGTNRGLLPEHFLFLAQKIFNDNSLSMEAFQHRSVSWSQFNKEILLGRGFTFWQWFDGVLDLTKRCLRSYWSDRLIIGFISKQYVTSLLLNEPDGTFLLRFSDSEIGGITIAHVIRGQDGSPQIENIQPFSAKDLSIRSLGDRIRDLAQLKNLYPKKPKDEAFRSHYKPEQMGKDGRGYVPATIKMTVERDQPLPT
Outline: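 Displacement of a fluorescent phosphotyrosine peptide (5-FAM-ApYKPFQDLI-NH2, 2 nM) from STAT6(W123-T658) (250 nM), 1% DMSO, pH 7.4 HEPES buffer. After 45 min at room temperature, polarization (mP) was plotted versus log compound concentration and fitted by nonlinear regression to give IC50.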

[2] = target: T2, Recombinant STAT3 protein (STAT3(G127-I722)) (Homo sapiens, UniProt P40763); assay: STAT3 Fluorescence Polarization (FP) Assay; format: binding; conditions: STAT3(G127-I722) 25 nM, probe 5-FAM-GpYLPQTV-NH2 2 nM, 45-minute incubation
T2 construct: Recombinant STAT3 protein (STAT3(G127-I722))
Outline: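 STAT3(G127-I722), 25 nM, was mixed with 2 nM 5-FAM-GpYLPQTV-NH2 probe in HEPES pH 7.4 buffer with 1% DMSO and serially diluted compound. FP (mP) was read after 45 min at room temperature. IC50 came from nonlinear regression.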

T2 sequence (P40763 127-722): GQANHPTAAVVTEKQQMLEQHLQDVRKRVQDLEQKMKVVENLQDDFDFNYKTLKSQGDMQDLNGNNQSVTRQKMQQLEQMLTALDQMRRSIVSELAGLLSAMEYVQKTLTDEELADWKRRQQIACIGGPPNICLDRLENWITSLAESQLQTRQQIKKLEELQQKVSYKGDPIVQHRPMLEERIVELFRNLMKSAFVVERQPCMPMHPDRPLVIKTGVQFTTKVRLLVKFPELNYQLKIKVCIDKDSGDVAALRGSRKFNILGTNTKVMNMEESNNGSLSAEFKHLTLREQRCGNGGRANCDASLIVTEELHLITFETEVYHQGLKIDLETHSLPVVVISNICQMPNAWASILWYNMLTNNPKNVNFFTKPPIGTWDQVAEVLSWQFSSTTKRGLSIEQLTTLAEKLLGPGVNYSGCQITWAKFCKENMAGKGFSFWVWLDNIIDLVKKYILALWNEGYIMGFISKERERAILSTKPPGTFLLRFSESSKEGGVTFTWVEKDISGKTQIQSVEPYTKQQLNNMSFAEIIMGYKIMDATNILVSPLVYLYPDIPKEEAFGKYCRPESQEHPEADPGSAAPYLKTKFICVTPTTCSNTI

Row | Compound | IC50 [1] | IC50 [2]
1 | CCC(C)(C)c1ccc(N(C)C(=O)[C@@H]2CC[C@@H]3CCN(C(C)=O)C[C@H](NC(=O)c4cc5cc(C(F)(F)P(=O)(O)O)ccc5s4)C(=O)N32)cc1 [Compound 159, ((2-(((5S,8S,10aR)-3-acetyl-8-(methyl(4-(tert-pentyl)phenyl)carbamoyl)-6-oxodecahydropyrrolo[1,2-a][1,5]diazocin-5-yl)carbamoyl)benzo[b]thiophen-5-yl)difluoromethyl)phosphonic acid] | 300 to 3000 nM | 1000 to 10000 nM
2 | CC(=O)N1CC[C@H]2CC[C@@H](C(=O)N(C)c3ccc(C(C)(C)C)c(Cl)c3)N2C(=O)[C@@H](NC(=O)c2cc3cc(C(F)(F)P(=O)(O)O)ccc3s2)C1 [Compound 160, ((2-(((5S,8S,10aR)-3-acetyl-8-((4-(tert-butyl)-3-chlorophenyl)(methyl)carbamoyl)-6-oxodecahydropyrrolo[1,2-a][1,5]diazocin-5-yl)carbamoyl)benzo[b]thiophen-5-yl)difluoromethyl)phosphonic acid] | 300 to 3000 nM | 1000 to 10000 nM
3 | CC(=O)N1CC[C@H]2CC[C@@H](C(=O)Nc3ccc4c(cnn4C)c3)N2C(=O)[C@@H](NC(=O)c2cc3cc(C(F)(F)P(=O)(O)O)ccc3s2)C1 [Compound 161, ((2-(((5S,8S,10aR)-3-acetyl-8-((1-methyl-1H-indazol-5-yl)carbamoyl)-6-oxodecahydropyrrolo[1,2-a][1,5]diazocin-5-yl)carbamoyl)benzo[b]thiophen-5-yl)difluoromethyl)phosphonic acid] | 300 to 3000 nM | 1000 to 10000 nM
4 | CC(=O)N1CC[C@H]2CC[C@@H](C(=O)N3CCC[C@H]3c3ccccc3)N2C(=O)[C@@H](NC(=O)c2cc3cc(C(F)(F)P(=O)(O)O)ccc3[nH]2)C1 [Compound 162, ((2-(((5S,8S,10aR)-3-acetyl-6-oxo-8-((S)-2-phenylpyrrolidine-1-carbonyl)decahydropyrrolo[1,2-a][1,5]diazocin-5-yl)carbamoyl)-1H-indol-5-yl)difluoromethyl)phosphonic acid] | 300 to 3000 nM | 1000 to 10000 nM
5 | CC(=O)N1CC[C@H]2CC[C@@H](C(=O)N3CCC[C@H]3Cc3ccccc3)N2C(=O)[C@@H](NC(=O)c2cc3cc(C(F)(F)P(=O)(O)O)ccc3[nH]2)C1 [Compound 163, ((2-(((5S,8S,10aR)-3-acetyl-8-((S)-2-benzylpyrrolidine-1-carbonyl)-6-oxodecahydropyrrolo[1,2-a][1,5]diazocin-5-yl)carbamoyl)-1H-indol-5-yl)difluoromethyl)phosphonic acid] | 300 to 3000 nM | 1000 to 10000 nM
6 | COc1ccccc1N(C)C(=O)[C@@H]1CC[C@@H]2CCN(C(C)=O)C[C@H](NC(=O)c3cc4cc(C(F)(F)P(=O)(O)O)ccc4[nH]3)C(=O)N21 [Compound 164, ((2-(((5S,8S,10aR)-3-acetyl-8-((2-methoxyphenyl)(methyl)carbamoyl)-6-oxodecahydropyrrolo[1,2-a][1,5]diazocin-5-yl)carbamoyl)-1H-indol-5-yl)difluoromethyl)phosphonic acid] | 300 to 3000 nM | 1000 to 10000 nM

The remaining lines, values ahead:

Row | IC50 [1] | IC50 [2] | Compound
7 | 300 to 3000 nM | 1000 to 10000 nM | COc1cccc(N(C)C(=O)[C@@H]2CC[C@@H]3CCN(C(C)=O)C[C@H](NC(=O)c4cc5cc(C(F)(F)P(=O)(O)O)ccc5[nH]4)C(=O)N32)c1 [Compound 165, ((2-(((5S,8S,10aR)-3-acetyl-8-((3-methoxyphenyl)(methyl)carbamoyl)-6-oxodecahydropyrrolo[1,2-a][1,5]diazocin-5-yl)carbamoyl)-1H-indol-5-yl)difluoromethyl)phosphonic acid]
8 | 300 to 3000 nM | 1000 to 10000 nM | COc1ccc(N(C)C(=O)[C@@H]2CC[C@@H]3CCN(C(C)=O)C[C@H](NC(=O)c4cc5cc(C(F)(F)P(=O)(O)O)ccc5[nH]4)C(=O)N32)cc1 [Compound 166, ((2-(((5S,8S,10aR)-3-acetyl-8-((4-methoxyphenyl)(methyl)carbamoyl)-6-oxodecahydropyrrolo[1,2-a][1,5]diazocin-5-yl)carbamoyl)-1H-indol-5-yl)difluoromethyl)phosphonic acid]
9 | 300 to 3000 nM | 1000 to 10000 nM | CC(=O)N1CC[C@H]2CC[C@@H](C(=O)N(C)c3cccc(C#N)c3)N2C(=O)[C@@H](NC(=O)c2cc3cc(C(F)(F)P(=O)(O)O)ccc3[nH]2)C1 [Compound 167, ((2-(((5S,8S,10aR)-3-acetyl-8-((3-cyanophenyl)(methyl)carbamoyl)-6-oxodecahydropyrrolo[1,2-a][1,5]diazocin-5-yl)carbamoyl)-1H-indol-5-yl)difluoromethyl)phosphonic acid]
10 | 300 to 3000 nM | 1000 to 10000 nM | CC(=O)N1CC[C@H]2CC[C@@H](C(=O)N(C)c3ccc(C#N)cc3)N2C(=O)[C@@H](NC(=O)c2cc3cc(C(F)(F)P(=O)(O)O)ccc3[nH]2)C1 [Compound 168, ((2-(((5S,8S,10aR)-3-acetyl-8-((4-cyanophenyl)(methyl)carbamoyl)-6-oxodecahydropyrrolo[1,2-a][1,5]diazocin-5-yl)carbamoyl)-1H-indol-5-yl)difluoromethyl)phosphonic acid]
11 | 300 to 3000 nM | 1000 to 10000 nM | CCN(C(=O)[C@@H]1CC[C@@H]2CCN(C(C)=O)C[C@H](NC(=O)c3cc4cc(C(F)(F)P(=O)(O)O)ccc4[nH]3)C(=O)N21)c1ccccc1 [Compound 169, ((2-(((5S,8S,10aR)-3-acetyl-8-(ethyl(phenyl)carbamoyl)-6-oxodecahydropyrrolo[1,2-a][1,5]diazocin-5-yl)carbamoyl)-1H-indol-5-yl)difluoromethyl)phosphonic acid]
12 | 300 to 3000 nM | 1000 to 10000 nM | CC(=O)N1CC(N(C)C(=O)[C@@H]2CC[C@@H]3CCN(C(C)=O)C[C@H](NC(=O)c4cc5cc(C(F)(F)P(=O)(O)O)ccc5[nH]4)C(=O)N32)C1 [Compound 170, ((2-(((5S,8S,10aR)-3-acetyl-8-((1-acetylazetidin-3-yl)(methyl)carbamoyl)-6-oxodecahydropyrrolo[1,2-a][1,5]diazocin-5-yl)carbamoyl)-1H-indol-5-yl)difluoromethyl)phosphonic acid]
13 | 300 to 3000 nM | 1000 to 10000 nM | CC(=O)N1CC(N(C)C(=O)[C@@H]2CC[C@@H]3CCN(C(C)=O)C[C@H](NC(=O)c4cc5cc(C(F)(F)P(=O)(O)O)ccc5s4)C(=O)N32)C1 [Compound 171, ((2-(((5S,8S,10aR)-3-acetyl-8-((1-acetylazetidin-3-yl)(methyl)carbamoyl)-6-oxodecahydropyrrolo[1,2-a][1,5]diazocin-5-yl)carbamoyl)benzo[b]thiophen-5-yl)difluoromethyl)phosphonic acid]
14 | 300 to 3000 nM | 1000 to 10000 nM | CC(=O)N1CC[C@H]2CC[C@@H](C(=O)Nc3ccc4ncncc4c3)N2C(=O)[C@@H](NC(=O)c2cc3cc(C(F)(F)P(=O)(O)O)ccc3s2)C1 [Compound 172, ((2-(((5S,8S,10aR)-3-acetyl-6-oxo-8-(quinazolin-6-ylcarbamoyl)decahydropyrrolo[1,2-a][1,5]diazocin-5-yl)carbamoyl)benzo[b]thiophen-5-yl)difluoromethyl)phosphonic acid]
15 | 300 to 3000 nM | 100 to 1000 nM | CC(=O)N1CC[C@H]2CC[C@@H](C(=O)Nc3ccc4ccccc4c3)N2C(=O)[C@@H](NC(=O)c2cc3cc(C(F)(F)P(=O)(O)O)ccc3s2)C1 [Compound 173, ((2-(((5S,8S,10aR)-3-acetyl-8-(naphthalen-2-ylcarbamoyl)-6-oxodecahydropyrrolo[1,2-a][1,5]diazocin-5-yl)carbamoyl)benzo[b]thiophen-5-yl)difluoromethyl)phosphonic acid]
